Results on 23 compounds are retold here after ChEMBL document CHEMBL1137915, “SAR and factor IXa crystal structure of a dual inhibitor of factors IXa and Xa” (Bioorg Med Chem Lett, 2004).

For one assay, the target named is Coagulation factor IX (Homo sapiens, UniProt P00740). As to the kind of experiment: Binding affinity towards human factor IXa.
The target in the next assay is Coagulation factor X (Homo sapiens, UniProt P00742). As to the kind of experiment: Binding affinity towards human factor Xa.
Sequence of Coagulation factor X (P00742 41-179 limits assumed): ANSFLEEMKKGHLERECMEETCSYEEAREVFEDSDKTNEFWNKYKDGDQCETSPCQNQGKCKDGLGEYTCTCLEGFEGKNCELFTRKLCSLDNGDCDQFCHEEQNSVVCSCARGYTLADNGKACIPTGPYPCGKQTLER
Sequence of Coagulation factor X (P00742 235-488 limits assumed): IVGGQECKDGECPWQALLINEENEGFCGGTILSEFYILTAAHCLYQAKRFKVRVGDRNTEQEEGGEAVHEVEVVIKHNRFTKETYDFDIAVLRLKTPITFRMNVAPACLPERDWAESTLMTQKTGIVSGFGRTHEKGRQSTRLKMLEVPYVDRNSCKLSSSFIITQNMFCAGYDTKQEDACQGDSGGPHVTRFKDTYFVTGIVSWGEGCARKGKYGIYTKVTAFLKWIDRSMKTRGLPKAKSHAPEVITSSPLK

Sequence of Coagulation factor IX (P00740 47-191 limits assumed): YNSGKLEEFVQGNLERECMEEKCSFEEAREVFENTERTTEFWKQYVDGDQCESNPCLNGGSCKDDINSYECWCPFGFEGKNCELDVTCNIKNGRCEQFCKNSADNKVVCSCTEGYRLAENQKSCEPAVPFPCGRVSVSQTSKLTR
Sequence of Coagulation factor IX (P00740 227-461 limits assumed): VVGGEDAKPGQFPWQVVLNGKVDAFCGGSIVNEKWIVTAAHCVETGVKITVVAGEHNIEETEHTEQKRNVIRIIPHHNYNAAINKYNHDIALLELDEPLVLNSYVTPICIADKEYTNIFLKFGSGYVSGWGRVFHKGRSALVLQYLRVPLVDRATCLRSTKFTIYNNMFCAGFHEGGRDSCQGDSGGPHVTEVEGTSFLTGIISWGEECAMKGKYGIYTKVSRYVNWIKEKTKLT

As usually defined, the Ki is a measure of affinity in units of concentration, obtained from inhibition or displacement. A high value points to a looser hold on the target. Consider `N=C(N)c1cccc(-n2nc(C(F)(F)F)cc2C(=O)Nc2ccc(-n3cnc4cc(C(F)(F)F)ccc43)cc2F)c1`, for which the Ki at Coagulation factor IX came to 6.4 nM.
Same read-out and setting: under `N=C(N)c1cccc(-n2nc(C(F)(F)F)cc2C(=O)Nc2ccc(-n3cnc4cc(N)ccc43)cc2F)c1` stands 11 nM.
Consider `N=C(N)c1cccc(-n2nc(C(F)(F)F)cc2C(=O)Nc2ccc(-n3cnc4cnccc43)cc2F)c1`, for which the Ki at Coagulation factor IX is 8 nM; on Coagulation factor X, 0.03 nM.
On to `Cc1cc(C(=O)Nc2ccc(-n3cnc4ccccc43)cc2)n(-c2cccc(C(=N)N)c2)n1`, for which the inhibition constant (Ki) at Coagulation factor IX turned out to be 82 nM.
For the compound `N=C(N)c1cccc(-n2nc(C(F)(F)F)cc2C(=O)Nc2ccc(-n3cnc4ncccc43)cc2F)c1`, the Ki is 7.9 nM on Coagulation factor IX and 0.02 nM at Coagulation factor X.
On to `N=C(N)c1cccc(-n2nc(-c3cccnc3)cc2C(=O)Nc2ccc(-n3cnc4ccccc43)cc2)c1`, for which affinity on Coagulation factor IX was put at a Ki of 5.5 nM.
Consider `N=C(N)c1cccc(-n2nc(C(F)(F)F)cc2C(=O)Nc2ccc(-n3ccc4ccccc43)cc2F)c1`, for which the affinity on Coagulation factor IX corresponds to a Ki of 1700 nM.
On to `N=C(N)c1cccc(-n2nc(C(F)(F)F)cc2C(=O)Nc2ccc(N3C(=O)N=C4C=CC=CC43)cc2)c1` (stereo unspecified), for which the inhibition constant Ki at Coagulation factor IX worked out at 190 nM; on Coagulation factor X it was 0.05 nM.
The like results for `N=C(N)c1cccc(-n2nc(C(F)(F)F)cc2C(=O)Nc2ccc(-n3cnc4ccncc43)cc2F)c1` were, in that order, 7.9 nM and 0.04 nM.
For the compound `N=C(N)c1cccc(-n2nc(C(F)(F)F)cc2C(=O)Nc2ccc(-n3cnc4ccccc43)cc2)c1`, the values for the Ki at Coagulation factor IX and on Coagulation factor X were 11 nM and 0.09 nM, respectively.
In turn, `Cc1cc(C(=O)Nc2ccc(-c3ccccc3S(N)(=O)=O)cc2)n(-c2cccc(C(=N)N)c2)n1` registered a Ki on Coagulation factor IX of 1900 nM.
In turn, `Cc1ccc2c(c1)ncn2-c1ccc(NC(=O)c2cc(C(F)(F)F)nn2-c2cccc(C(=N)N)c2)c(F)c1` displayed an inhibition constant Ki on Coagulation factor IX of 10 nM.
The same measure, in the same setting: under `N=C(N)c1cccc(-n2nc(Cn3ccnn3)cc2C(=O)Nc2ccc(-n3cnc4ccccc43)cc2)c1` stands 20 nM.
Same read-out and setting: under `N=C(N)c1cccc(-n2nc(C(F)(F)F)cc2C(=O)Nc2ccc(-n3cnc4cc(Cl)ccc43)cc2F)c1` stands 4.2 nM.
Regarding `N=C(N)c1cccc(-n2nc(Cn3cncn3)cc2C(=O)Nc2ccc(-n3cnc4ccccc43)cc2)c1`, the inhibition constant Ki came to 44 nM at Coagulation factor IX and 0.19 nM on Coagulation factor X.
For `N=C(N)c1cccc(-n2nc(C(F)(F)F)cc2C(=O)Nc2ccc(-n3cnc4cccnc43)cc2F)c1` the same measures were 13 nM and 0.02 nM.
Regarding `N=C(N)c1cccc(-n2nc(-c3cccnc3)cc2C(=O)Nc2ccc(-n3cnc4cc(Cl)ccc43)cc2)c1`, the Ki on Coagulation factor IX was determined as 15 nM.
Still for that read-out and setting: under `N=C(N)c1cccc(-n2nc(Cn3ccnc3)cc2C(=O)Nc2ccc(-n3cnc4ccccc43)cc2)c1` stands 120 nM; under `N=C(N)c1cccc(-n2nc(C(F)(F)F)cc2C(=O)Nc2ccc(-n3cnc4ccc(Cl)cc43)cc2F)c1`, 5.1 nM.
On the same count and under the same terms, under `N=C(N)c1cccc(-n2nc(Cn3cnnn3)cc2C(=O)Nc2ccc(-n3cnc4ccccc43)cc2)c1` stands 11 nM.
For the compound `N=C(N)c1cccc(-n2nc(C(F)(F)F)cc2C(=O)Nc2ccc(-n3ccnc3)cc2)c1`, the inhibition constant (Ki) was determined as 72 nM on Coagulation factor IX and 0.09 nM at Coagulation factor X.
At Coagulation factor IX, `N=C(N)c1cccc(-n2nc(C(F)(F)F)cc2C(=O)Nc2ccc(-n3cnc4cc(Cl)c(Cl)cc43)cc2F)c1` gave a Ki of 26 nM.
The same measure, in the same setting: under `N=C(N)c1cccc(-n2nc(C(F)(F)F)cc2C(=O)Nc2ccc(-n3cnc4cc([N+](=O)[O-])ccc43)cc2F)c1` stands 11 nM.
